Read-outs that look alike come from different tables or passages of the source.
Key:
[1] = Example 4 Group A: safety (adverse events) in healthy volunteers; format: in vivo, human
Protocol: (§1) Six sequential cohorts of 8 health volunteers per cohort were randomized via a computer-generated randomization list in the ratio of 2:6. Two of the healthy volunteers (HV) received placebo and the remaining six received Compound I under fasted conditions at single ascending doses of 10, 25, 50, 150, or 300 mg, or multiple doses at 300 mg QD for 7 days (below, “Group A”).
(§2) For Groups A and B, dosing occurred between approximately 08:00 AM and 10:00 AM on each dosing day. Dosing was fasted for all subjects in Groups A and B. For fasted dosing, subjects observed a fasting period of approximately 10 hours prior to each dose and for an additional 4 hours post-dose.
Safety measurements included clinical history, routine laboratory evaluation, physical examination, 12-lead ECG, vital signs, adverse event (AE) assessment.

[2] = Example 4 Group A: plasma pharmacokinetics in healthy volunteers (LC/MS/MS); conditions: human, in vivo; for AUC(0-inf) / Cmax / half-life: mean ± SD; for AUC(0-inf): read-out: AUC∞ of Compound I; for Cmax: read-out: Cmax of Compound I; for half-life: read-out: t1/2 of Compound I (converted); for Tmax: median, read-out: Tmax of Compound I
Protocol: as §1
Compound I was provided as size 0, white, hard hydroxypropyl methylcellulose (HPMC) capsules for oral administration at 5 mg, 25 mg, and 50 mg strengths. The same powder blend containing 33.3% weight/weight (w/w) Compound I, a diluent, and a disintegrant is used to fill the capsules for all dose strengths. Matching placebo capsules will also be provided. Storage conditions will be provided on the study drug container label.
as §2
Plasma samples were obtained up to 120 hours after dosing and the levels of Compound I and its Nucleoside metabolite were measured by using validated LC/MS/MS methodology. Plasma pharmacokinetic parameters were obtained by using non-compartmental analysis with parameters reported as mean±standard deviation (SD) except for Tmax where median (min-max) is shown.

[3] = 10 mg, 10 mg single dose, fasted
[4] = 25 mg, 25 mg single dose, fasted
[5] = 50 mg, 50 mg single dose, fasted
[6] = 150 mg, 150 mg single dose, fasted
[7] = 300 mg, 300 mg single dose, fasted

CC(C)OC(=O)[C@@H](C)N[P@@](=O)(OC[C@H]1O[C@@H](n2ccc(=O)[nH]c2=O)[C@](C)(Cl)[C@@H]1O)Oc1ccccc1 [Compound I]
1680 ± 725 ng·h/mL: AUC(0-inf) [2, 7]
0.5 h: Tmax ([2]; 300 mg, 300 mg QD, D7, fasted) | Tmax [2, 7]
162 ng·h/mL: AUC(0-inf) [2, 5]
0.91 ± 0.26 h: half-life [2, 4]
4 (66.7) n, %: Subjects with AE ([1]; 150 mg (n = 6))
2200 ± 494 ng·h/mL: AUC(0-inf) ([2]; 300 mg, 300 mg QD, D7, fasted)
51.2 ± 12.8 ng·h/mL: AUC(0-inf) [2, 4]
28.8 ± 13.4 ng/mL: Cmax [2, 4]
1290 ± 333 ng/mL: Cmax ([2]; 300 mg, 300 mg QD, D1, fasted)
3 (50.0) n, %: Subjects with AE ([1]; 300 mg single dose (n = 6))
0.8 h: Tmax [2, 3] | Tmax ([2]; 300 mg, 300 mg QD, D1, fasted)
0 n, %: Adverse event: Abdominal discomfort ([1]; 10 mg single dose (n = 6)) | Adverse event: Abnormal feces ([1]; 10 mg single dose (n = 6)) | Adverse event: Constipation ([1]; 10 mg single dose (n = 6)) | Adverse event: Dizziness ([1]; 10 mg single dose (n = 6)) | Adverse event: Dry mouth ([1]; 10 mg single dose (n = 6)) | Adverse event: Dry skin ([1]; 10 mg single dose (n = 6)) | Adverse event: Erythema ([1]; 10 mg single dose (n = 6)) | Adverse event: Flushing ([1]; 10 mg single dose (n = 6)) | Adverse event: Headache ([1]; 10 mg single dose (n = 6)) | Adverse event: Menstruation delayed ([1]; 10 mg single dose (n = 6)) | Adverse event: Musculoskeletal stiffness ([1]; 10 mg single dose (n = 6)) | Adverse event: Nausea ([1]; 10 mg single dose (n = 6)) | Adverse event: Palpitations ([1]; 10 mg single dose (n = 6)) | Adverse event: Pancreatic enzymes increased ([1]; 10 mg single dose (n = 6)) | Adverse event: Procedural nausea ([1]; 10 mg single dose (n = 6)) | Adverse event: Vessel puncture site bruise ([1]; 10 mg single dose (n = 6)) | Adverse event: Vessel puncture site pain ([1]; 10 mg single dose (n = 6)) | Adverse event: Vomiting ([1]; 10 mg single dose (n = 6)) | Subjects with AE ([1]; 10 mg single dose (n = 6)) | Adverse event: Abdominal discomfort ([1]; 25 mg single dose (n = 6)) | Adverse event: Abnormal feces ([1]; 25 mg single dose (n = 6)) | Adverse event: Constipation ([1]; 25 mg single dose (n = 6)) | Adverse event: Dizziness ([1]; 25 mg single dose (n = 6)) | Adverse event: Dry mouth ([1]; 25 mg single dose (n = 6)) | Adverse event: Dry skin ([1]; 25 mg single dose (n = 6)) | Adverse event: Erythema ([1]; 25 mg single dose (n = 6)) | Adverse event: Flushing ([1]; 25 mg single dose (n = 6)) | Adverse event: Headache ([1]; 25 mg single dose (n = 6)) | Adverse event: Menstruation delayed ([1]; 25 mg single dose (n = 6)) | Adverse event: Musculoskeletal stiffness ([1]; 25 mg single dose (n = 6)) | Adverse event: Nausea ([1]; 25 mg single dose (n = 6)) | Adverse event: Palpitations ([1]; 25 mg single dose (n = 6)) | Adverse event: Vessel puncture site bruise ([1]; 25 mg single dose (n = 6)) | Adverse event: Vessel puncture site pain ([1]; 25 mg single dose (n = 6)) | Adverse event: Vomiting ([1]; 25 mg single dose (n = 6)) | Adverse event: Abnormal feces ([1]; 50 mg single dose (n = 6)) | Adverse event: Constipation ([1]; 50 mg single dose (n = 6)) | Adverse event: Dry mouth ([1]; 50 mg single dose (n = 6)) | Adverse event: Dry skin ([1]; 50 mg single dose (n = 6)) | Adverse event: Erythema ([1]; 50 mg single dose (n = 6)) | Adverse event: Flushing ([1]; 50 mg single dose (n = 6)) | Adverse event: Menstruation delayed ([1]; 50 mg single dose (n = 6)) | Adverse event: Musculoskeletal stiffness ([1]; 50 mg single dose (n = 6)) | Adverse event: Nausea ([1]; 50 mg single dose (n = 6)) | Adverse event: Palpitations ([1]; 50 mg single dose (n = 6)) | Adverse event: Pancreatic enzymes increased ([1]; 50 mg single dose (n = 6)) | Adverse event: Procedural nausea ([1]; 50 mg single dose (n = 6)) | Adverse event: Vessel puncture site bruise ([1]; 50 mg single dose (n = 6)) | Adverse event: Vessel puncture site pain ([1]; 50 mg single dose (n = 6)) | Adverse event: Vomiting ([1]; 50 mg single dose (n = 6)) | Adverse event: Constipation ([1]; 150 mg (n = 6)) | Adverse event: Dry skin ([1]; 150 mg (n = 6)) | Adverse event: Menstruation delayed ([1]; 150 mg (n = 6)) | Adverse event: Musculoskeletal stiffness ([1]; 150 mg (n = 6)) | Adverse event: Palpitations ([1]; 150 mg (n = 6)) | Adverse event: Pancreatic enzymes increased ([1]; 150 mg (n = 6)) | Adverse event: Procedural nausea ([1]; 150 mg (n = 6)) | Adverse event: Vessel puncture site bruise ([1]; 150 mg (n = 6)) | Adverse event: Vessel puncture site pain ([1]; 150 mg (n = 6)) | Adverse event: Abdominal discomfort ([1]; 300 mg QD x 7 days (n = 6)) | Adverse event: Abnormal feces ([1]; 300 mg QD x 7 days (n = 6)) | Adverse event: Constipation ([1]; 300 mg QD x 7 days (n = 6)) | Adverse event: Dizziness ([1]; 300 mg QD x 7 days (n = 6)) | Adverse event: Dry mouth ([1]; 300 mg QD x 7 days (n = 6)) | Adverse event: Dry skin ([1]; 300 mg QD x 7 days (n = 6)) | Adverse event: Erythema ([1]; 300 mg QD x 7 days (n = 6)) | Adverse event: Flushing ([1]; 300 mg QD x 7 days (n = 6)) | Adverse event: Headache ([1]; 300 mg QD x 7 days (n = 6)) | Adverse event: Musculoskeletal stiffness ([1]; 300 mg QD x 7 days (n = 6)) | Adverse event: Nausea ([1]; 300 mg QD x 7 days (n = 6)) | Adverse event: Pancreatic enzymes increased ([1]; 300 mg QD x 7 days (n = 6)) | Adverse event: Procedural nausea ([1]; 300 mg QD x 7 days (n = 6)) | Adverse event: Vessel puncture site pain ([1]; 300 mg QD x 7 days (n = 6)) | Adverse event: Vomiting ([1]; 300 mg QD x 7 days (n = 6)) | Adverse event: Abdominal discomfort ([1]; 300 mg single dose (n = 6)) | Adverse event: Abnormal feces ([1]; 300 mg single dose (n = 6)) | Adverse event: Constipation ([1]; 300 mg single dose (n = 6)) | Adverse event: Dry mouth ([1]; 300 mg single dose (n = 6)) | Adverse event: Dry skin ([1]; 300 mg single dose (n = 6)) | Adverse event: Erythema ([1]; 300 mg single dose (n = 6)) | Adverse event: Flushing ([1]; 300 mg single dose (n = 6)) | Adverse event: Menstruation delayed ([1]; 300 mg single dose (n = 6)) | Adverse event: Palpitations ([1]; 300 mg single dose (n = 6)) | Adverse event: Pancreatic enzymes increased ([1]; 300 mg single dose (n = 6)) | Adverse event: Procedural nausea ([1]; 300 mg single dose (n = 6)) | Adverse event: Vessel puncture site pain ([1]; 300 mg single dose (n = 6)) | Adverse event: Vomiting ([1]; 300 mg single dose (n = 6))
1 (16.7) n, %: Adverse event: Pancreatic enzymes increased ([1]; 25 mg single dose (n = 6)) | Adverse event: Procedural nausea ([1]; 25 mg single dose (n = 6)) | Adverse event: Abdominal discomfort ([1]; 50 mg single dose (n = 6)) | Adverse event: Dizziness ([1]; 50 mg single dose (n = 6)) | Adverse event: Headache ([1]; 50 mg single dose (n = 6)) | Adverse event: Abdominal discomfort ([1]; 150 mg (n = 6)) | Adverse event: Dry mouth ([1]; 150 mg (n = 6)) | Adverse event: Erythema ([1]; 150 mg (n = 6)) | Adverse event: Flushing ([1]; 150 mg (n = 6)) | Adverse event: Headache ([1]; 150 mg (n = 6)) | Adverse event: Vomiting ([1]; 150 mg (n = 6)) | Adverse event: Menstruation delayed ([1]; 300 mg QD x 7 days (n = 6)) | Adverse event: Palpitations ([1]; 300 mg QD x 7 days (n = 6)) | Adverse event: Vessel puncture site bruise ([1]; 300 mg QD x 7 days (n = 6)) | Adverse event: Dizziness ([1]; 300 mg single dose (n = 6)) | Adverse event: Headache ([1]; 300 mg single dose (n = 6)) | Adverse event: Musculoskeletal stiffness ([1]; 300 mg single dose (n = 6)) | Adverse event: Nausea ([1]; 300 mg single dose (n = 6)) | Adverse event: Vessel puncture site bruise ([1]; 300 mg single dose (n = 6))
17.4 ± 6.64 ng/mL: Cmax [2, 3]
0.87 ± 0.25 h: half-life [2, 3]
2 (33.3) n, %: Subjects with AE ([1]; 25 mg single dose (n = 6)) | Subjects with AE ([1]; 50 mg single dose (n = 6)) | Adverse event: Abnormal feces ([1]; 150 mg (n = 6)) | Adverse event: Dizziness ([1]; 150 mg (n = 6)) | Subjects with AE ([1]; 300 mg QD x 7 days (n = 6))
26 ± 7.6 ng·h/mL: AUC(0-inf) [2, 3]
1.88 ± 0.72 h: half-life ([2]; 300 mg, 300 mg QD, D1, fasted)
82.4 ± 61.6 ng/mL: Cmax [2, 5]
1 h: Tmax [2, 4] | Tmax [2, 5] | Tmax [2, 6]
1110 ± 690 ng·h/mL: AUC(0-inf) [2, 6]
1.16 ± 0.24 h: half-life [2, 6]
924 ± 441 ng/mL: Cmax [2, 7]
1.04 ± 0.34 h: half-life [2, 5]
667 ± 324 ng/mL: Cmax [2, 6]
2170 ± 660 ng·h/mL: AUC(0-inf) ([2]; 300 mg, 300 mg QD, D1, fasted)
1280 ± 238 ng/mL: Cmax ([2]; 300 mg, 300 mg QD, D7, fasted)
2.76 ± 1.79 h: half-life ([2]; 300 mg, 300 mg QD, D7, fasted)
1.19 ± 0.34 h: half-life [2, 7]
